From ChEMBL document CHEMBL5030551, “Identification of Plasmodium falciparum falcilysin inhibitors by a virtual screen” (Bioorg Med Chem Lett, 2021)

Legend:
Plasmodium falciparum = assay: Antiplasmodial activity against Plasmodium falciparum 3D7 infected in human red blood cells assessed as reduction in parasitemia measured after 70 to 80 hrs by SYBR Green dye based assay; type: functional, organism-based, RBC; conditions: 3D7, Erythrocyte
[1] = Inhibition of recombinant Plasmodium falciparum FLN expressed in Escherichia coli BL21 using Dabcyl-HKRHSFRMRG-EDANS as substrate incubated for 10 mins by fluorecence assay

Compound	EC50 (Plasmodium falciparum) [µM]	IC50 [1] [µM]
Cc1cccc(-c2nc3c4ccccc4nc(NCCc4ccccc4)n3n2)c1	5.3	> 25
O=C(Nc1nc2ccccc2[nH]1)c1cc(-c2ccccn2)nc2ccccc12	14.9	> 25
Cc1cccc(NC(=O)Cn2c(C)cc(=O)n3nc(-c4cccc(C)c4)nc23)c1	> 25	> 25
O=C1c2ccc3c(c2CC12Cc1ccc4c(c1C2=O)CCCC4)CCCC3 (stereo not given)	> 25	> 25
C[C@H]1CCc2[nH]c3ccc(C(=O)NC[C@H]4COc5ccccc5O4)cc3c2C1	9.1	> 25
O=C(NN1C(=O)c2cccc3cccc(c23)C1=O)NN1C(=O)c2cccc3cccc(c23)C1=O	> 25	> 25
Cc1ccc(-c2nc3cccnc3n2CCNC(=O)Nc2ccccc2F)cc1	> 25	> 25
O=C(c1cc(-c2cccc3cccnc23)cc(-n2cnnn2)c1)N1CCCCC1	> 25	> 25
Cc1ccc(N2C[C@@H](c3nc(-c4ccc5oc(C)nc5c4)no3)CC2=O)cc1	> 25	> 25
O=C(Cn1cc(-c2nnc(-c3ccccc3)o2)c2ccccc21)Nc1ccccc1	> 25	12
O=C(Nc1ccc(Cl)cc1)Nc1nnc2nc(CC(=O)c3ccc4ccccc4c3)c(=O)[nH]n12	12	19
O=c1/c(=C/c2ccc(/C=c3\sc4nc5ccccc5n4c3=O)cc2)sc2nc3ccccc3n12	> 25	> 25
O=C1Oc2ccccc2C(=O)Oc2ccccc2C(=O)Oc2ccccc2C(=O)Oc2ccccc21	> 25	> 25
Nc1c(C(=O)Nc2ccc3c(c2)C(=O)c2ccccc2C3=O)ccc2c1C(=O)c1ccccc1C2=O	> 25	1.76
C[C@@H]1Cc2cc(-c3cc(CC(=O)N=c4[nH]c5ccccc5[nH]4)no3)ccc2O1	> 25	> 25
Cc1ccc(-c2noc(CSc3nc(O)cc(-c4ccccc4)n3)n2)cc1C	> 25	> 25
CC1=C(C(=O)Nc2ccccc2C)[C@H](c2ccc3c(c2)OCO3)n2ncnc2N1	> 25	> 25

The next lines start with the values.

EC50 (Plasmodium falciparum) [µM]	IC50 [1] [µM]	Compound
5.1	> 25	O=C1/C(=c2/c3ccccc3n3c(=O)c4ccccc4nc23)Nc2ccccc21
> 25	> 25	Cc1nn(-c2cccc(C(=O)N3CCN(C)C(=O)C3)c2)c(=O)c2ccccc12
> 25	> 25	O=C(c1ccc2c3c(cccc13)CC2)[C@H]1CCCN(Cc2cc(=O)[nH]c(=O)[nH]2)C1
5.5	> 25	Cc1cc2cc(CCNC(=O)c3ccc4ccccc4c3)c(=O)[nH]c2cc1C
> 25	> 25	O=c1cc(CN2CCc3n[nH]c(-c4cccc5ccccc45)c3C2)[nH]c(=O)[nH]1
> 25	> 25	C[C@@H](c1cc(=O)[nH]c(N[C@H]2CCc3ccccc32)n1)n1ncc2ccccc2c1=O
> 25	11	CC(=O)n1cc([C@H]2CC(=O)OC3=C2C(=O)c2ccccc23)c2ccccc21
1.7	12	O=C1NC(=O)C(c2ccccc2)(c2ccccc2)[C@@H]2C[C@@H]3c4[nH]c5ccccc5c4CCN3C[C@H]12
3.8	> 25	CN1CCC2(CC1)Oc1ccccc1[C@H]1CC(c3cccc4ccccc34)=NN12
3.8	> 25	Cn1nc(C(=O)NCc2ccccc2)c2c1CCN(Cc1cc3ccccc3[nH]1)C2
> 25	> 25	Cc1nc2ccccc2c(=O)n1Cc1noc(-c2cc3ccccc3oc2=O)n1
3	> 25	Cc1c(C(=O)NCCc2nc3ccccc3[nH]2)oc2c1ccc1ccccc12
4.4	21	c1cnc2c(c1)CN(c1nc(-c3c[nH]c4ccccc34)nc3c1CNC3)CC2
